Source: patent US7659246B2, “Treatment of osteoarthritis” (Promics Pty Limited, priority 2002, dated 2010)

Assays:
[1] = test system: antigen-induced arthritis of the knee joint; assay: Rat monoarticular antigen-induced arthritis; type: in vivo
Protocol: Female Wistar rats (150-250 g) were obtained from the Central Animal Breeding House, University of Queensland. […] Each rat received a subcutaneous injection of this suspension (0.5 mL) on days 1 and 7. On day 12-28, rats were separated into separate cages, and body weight and food and water intake monitored daily. Rats received either ordinary tap water or drinking water containing AcF-[OPdChaWR] (1). […] On day 14, rats were anaesthetised and their hind limbs shaven. […] Rats were euthanased on day 28, and whole blood collected into an Eppendorf tube and allowed to spontaneously clot on ice. Blood samples were centrifuges (11,000 rpm×3 min) and serum collected and stored at −20° C. until analysis of serum cytokines using an ELISA. Each knee capsule was lavaged with 100 μL saline, and the total cell count determined using a haemocytometer. In addition, an aliquot of the knee joint lavage fluid was dropped onto a glass slide, and allowed to air dry. Once dry, cells were stained with a differential stain (Diff Quick) and a differential cell count was performed using a 40× dry lens microscope. The remaining lavage fluids from each joint were stored at −20° C. until later analysis of intra-articular cytokine levels using an ELISA. Each knee joint was severed, trimmed leaving only the area of interest and the skin was split with a scalpel blade. Knee samples were stored in 10% buffered formalin for >10 d. Knees were then rinsed with distilled water and placed in a saturated solution of EDTA solution for 21 d for decalcification before being embedded in paraffin wax. Knee tissue samples were prepared using standard histological techniques as described in Example 1, and stained using an haematoxylin and eosin stain. Histological slides were analysed in a blind fashion. […] In no samples was there evidence of significant bone erosion. Samples were thawed on the day of ELISA analysis, and serum or intra-articular lavage fluid TNFα and IL-6 concentrations were determined from a standard curve, using an ELISA as described in Example 1.

dermal Arthus reaction = assay: Reverse passive dermal Arthus reaction in the rat; type: in vivo; conditions: intravenous, oral and topical pretreatment
osteoarthritis [2] = assay: Clinical trial of PMX53 in arthritic dogs; type: in vivo, dog; conditions: dogs with osteoarthritis; sc injection
induced osteoarthritis = assay: Induced osteoarthritis in dogs (cruciate ligament transection); type: in vivo, dog
Protocol: Four healthy dogs were obtained from a group of pound dogs destined for euthanasia. The dogs were acclimatised to the experimental canine ward for 7 days before the experiment commenced. Dogs were housed individually and fed on a mixture of dry dog food, canned dog food and occasional raw bones. They were walked for 10 minutes twice daily throughout the trial. The dogs were of age and sex as follows:
PMX53 was synthesised by the Institute of Molecular Bioscience at the University of Queensland. The drug was dissolved in 30% polyethylene glycol 400 (PEG 400) in normal saline. The solution was made to a concentration of 3 mg/ml. The placebo vehicle was 30% PEG 400 in saline. All treatments were sterilised by filtration and stored at 4° C. The dogs were given the drug or placebo at a dose rate of 1 ml/10 kg body weight. The treatments were assigned to the dogs in a random fashion. The drug containers were marked so that the attendants who scored the gait were unaware of the treatment given to each dog.
The cruciate ligament of the left stifle (knee) joint was transected surgically by an experienced specialist surgeon. The incision in the skin was approximately 2 centimeters long. The dogs were given postoperative pain relief, including epidural analgesia and opioids. At 24 hours after the surgery all dogs were limping. No supplementary analgesic therapy was deemed necessary after day 1. All dogs tolerated the procedure very well.
The drug was given as a subcutaneous injection (0.3 mg/kg) into the loose skin on the dorsum of the neck once daily. […] Dogs were assessed twice daily for lameness while they were walked. The scoring was done by at least two people.

osteoarthritis [3] = assay: Clinical trial of PMX53 in arthritic dogs; type: in vivo, dog
Text: A single oral dose of the drug appears to be effective for at least 3-4 days, even in the most severe case. […] The individual cases are listed below.

[4] = dogs, day 28, compared to arthritic controls, FIG. 7

## CC(=O)N[C@@H](Cc1ccccc1)C(=O)N[C@H]1CCCNC(=O)[C@H](CCCNC(=N)N)NC(=O)[C@H](Cc2c[nH]c3ccccc23)NC(=O)[C@@H](CC2CCCCC2)NC(=O)[C@@H]2CCCN2C1=O [PMX53, AcF-[OPdChaWR]]
[1]; FIG. 5
  right knee joint IL-6 level in joint lavage: inhibition
  right knee joint TNFα level in joint lavage: inhibition
[1]; given orally on Days -2 to +14, FIG. 4
  arthritic right knee joint swelling: inhibition of arthritic right knee joint swelling
Dermal Arthus reaction; rat serum, FIG. 2
  rise in circulating TNFα associated with a dermal Arthus reaction: inhibition of the rise in circulating TNFα
Dermal Arthus reaction; rat, Evans blue absorbance at 650 nm, FIG. 1
  vascular leakage associated with a dermal Arthus reaction: inhibition of the vascular leakage
Osteoarthritis [2]
  duration of effects of one injection: last for weeks
Induced osteoarthritis; dog #2 (drug treated), also seen in placebo dog #4, day 28
  cartilage erosion: mild cartilage erosion
Induced osteoarthritis; dogs n=2, 0.3 mg/kg sc once daily, placebo 10-13 days, FIG. 6b
  time of treatment to improvement in the degree of lameness: 4 to 6 days
Induced osteoarthritis; dogs, 0.3 mg/kg sc once daily
  clinical impression of ability to walk: clearly improved the ability of the dogs to walk
Induced osteoarthritis; dogs, 0.3 mg/kg sc once daily, day 28
  gait at the end of the trial: relatively sound
Induced osteoarthritis; dogs, before surgery and at day 28
  blood biochemistry and haematology: No abnormalities were detected
Induced osteoarthritis; [4]
  fibrosis of the joint (histopathology): reduced fibrosis
  thickening of the synovial membrane (histopathology): reduced thickening of the synovial membrane
Induced osteoarthritis; dogs, sc in 30% PEG 400 in saline, drug and placebo alike
  discomfort when injected: mild discomfort
Induced osteoarthritis; dogs, sc, dorsum of the neck, day 28
  site of injection at post mortem: no abnormalities
Induced osteoarthritis; dogs, versus placebo-treated dogs
  recovery from surgery: recovered from surgery more rapidly
Osteoarthritis [3]; Case #1
  joint pain on manipulation: no joint pain on manipulation
  morning stiffness: no morning stiffness
  range of joint movement: not improved
Osteoarthritis [3]; Case #1, 0.3 mg/kg subcutaneously
  time to very noticeable improvement after injection: ≤ 24 h
Osteoarthritis [3]; Case #1, 1 mg/kg oral once daily, then 0.3 mg/kg sc once daily
  improvement after treatment: marked
Osteoarthritis [3]; Case #1, injections for 12 months
  side effects: no apparent side effects
Osteoarthritis [3]; Case #2
  attitude (owner report): noticeable improvement in attitude
Osteoarthritis [3]; Case #2, 1 mg/kg orally 4 weeks, then 0.3 mg/kg sc once daily
  lameness: did not improve
Osteoarthritis [3]; Case #3, 1 mg/kg per day orally, then 0.3 mg/kg sc as required, no NSAIDs
  response to therapy: responded very well
Osteoarthritis [3]; Case #3, after 9 months of treatment
  side effects: no side effects
Osteoarthritis [3]; Case #4 (rheumatoid arthritis), 0.3 mg/kg SC once a week alone
  control of clinical signs: did not completely control the clinical signs
Osteoarthritis [3]; Case #4, PMX53 once a week with prednisolone 2.5 mg PO once every second day
  clinical result in combination with prednisolone: excellent results
Osteoarthritis [3]; dogs with osteoarthritis, oral
  duration of effect of a single oral dose: 3 to 4 days
Osteoarthritis [3]; dogs, up to 12 months treatment
  side effects: No side effects
